Measurements from patent publication US11365215B2, “Method for preventing, improving, or treating inflammatory bowel disease” (Research & Business Foundation Sungkyunkwan University, priority 2015, dated 2022).
Where two headings read alike, the source gives them in different places. Peptide text beside a SMILES is read from it.

Key:
[1] = tested on: ARPE-19 cells (Nox-4, VEGF, VEGFR1, VEGFR2, Ang1, Ang2, Tie-2, EPO, EPOR); experiment: Western blot of angiogenesis related factors in high-glucose ARPE-19 cells; assay type: cell-based, human; conditions: 30 mM glucose 48 hours, 10 nM and 50 nM
Procedure: ARPE-19 cells were treated with 5.5 mM of glucose as reference control. For experiment group, the ARPE-19 cells were treated with 30 mM of glucose for 48 hours to induce high blood glucose condition, and simultaneously treated with DMSO, compound 1.1 (SEQ ID NO: 2) (10 nM), and compound 1.1 (SEQ ID NO: 2) (50 nM). Changes in expression of Nox-4, VEGF, VEGFR1, VEGFR2, Ang1, Ang2, Tie-2, EPO, and EPOR proteins were measured by Western blot analysis.

HRMEC cells = experiment: VEGF-induced tube formation in HRMEC cells; assay type: cell-based; conditions: HRMEC on Matrigel; 20 ng/ml VEGF 4 hours; 50 nM
Procedure: To evaluate the effect of compound 1.1 (SEQ ID NO: 2) on tube formation during angiogenesis, HRMEC cells ([…]) were cultured on Matrigel coated micro slides and treated with 20 ng/ml of VEGF for 4 hours to induce the tube formation. Simultaneously, for reference group, the cells were treated with DMSO, and for experimental group, the cells were treated with 50 nM of compound 1.1 (SEQ ID NO: 2) and 1 uM of calcein-AM. The cells were observed using fluorescence microscope.

interleukin-6 = experiment: Suppression of LPS-induced IL-6 expression in RAW 264.7 macrophage cells (RT-PCR, Real-Time PCR); assay type: cell-based
Procedure: First, RAW 264.7 macrophage cells were purchased from American Type Culture Collection (ATCC; Manassas, Va.), and were culture at a temperature of 37° C., under 5% CO2 atmosphere, using 10% Fetal Bovine Serum (FBS) and Dulbecco's Modified Eagle's Medium (DMEM) containing 1% penicillin/streptomycin.
The cultured RAW 264.7 macrophage cells were divided into a 6-well cell culture plate. After 24 hours, the cells were pretreated with compound 1.1 (SEQ ID NO: 2), compound 1.2, and smaducin-6, respectively, in a concentration of 100 nM for 30 min, and further treated with lipopolysaccharides (LPS) for two hours. These cells were collected using TRIzol® and the RNA was extracted. From 2 μg of the extracted RNA, cDNAs (complementary deoxyribonucleic acids) were synthesized and reverse transcription polymerase chain reactions (RT-PCR) and real-time polymerase chain reactions (Real-Time PCR) were performed. Samples from the RT-PCR were confirmed by electrophoresis on agarose gels and quantified using densitometer. A glyceraldehyde 3-phosphate dehydrogenase (GAPDH) gene was used as a loading control for the interleukin-6 gene.
RAW 264.7 macrophage cells were treated with varying concentrations of compound 1.1 (SEQ ID NO: 2) from 50 pM to 500 nM for 30 minutes, and treated with 100 ng/mL of LPS for two hours.

VEGF = experiment: qRT-PCR of VEGF in high-glucose HRMEC cells; assay type: cell-based; conditions: 30 mM glucose 48 hours, 10 nM and 50 nM
Procedure: In addition, HRMEC cells were treated with 5.5 mM of glucose for reference group. For experiment group, the HRMEC cells were treated with 30 mM of glucose for 48 hours to induce high blood glucose condition, and simultaneously treated with DMSO, compound 1.1 (SEQ ID NO: 2) (10 nM), and compound 1.1 (SEQ ID NO: 2) (50 nM). Changes in expression of Nox-4, VEGF, VEGFR1, VEGFR2, Ang1, Ang2, Tie-2, EPO, and EPOR proteins were quantitatively measured by qRT-PCR (quantitative RT-PCR). Expression of VEGF precursor as stimulating factor of new blood vessel was reduced by treatment with compound 1.1 (SEQ ID NO: 2) (FIG. 25C).

[2] = tested on: DSS-induced chronic colitis; experiment: Disease activity index in DSS-induced chronic colitis model; assay type: in vivo, Mice (C57BL/6); conditions: mice
Procedure: Mice (7-8 weeks, female, C57BL/6) were fed 2% DSS polymer (MW of about 50000 Da) in drinking water for 5-7 days, and colitis was induced every 2 to 15 days. Compound 1.1 (SEQ ID NO: 2) was then administered orally to the mice, which had induced chronic colitis by DSS, in an amount of 50 mg/kg, 100 mg/kg, 200 mg/kg and 400 mg/kg, respectively, from the third day after feeding DDS, daily, for 11 days. Body weights, diarrhea and hemafecia of the mice were checked daily and the disease activity indexes were measured (FIG. 10).

[3] = tested on: DSS-induced chronic colitis; experiment: Histological analyses of colon villi and mucous membranes in DSS-induced chronic colitis model; assay type: in vivo, mice; conditions: 100 mpk
BRE (BMP6 signaling) = experiment: BRE-Luc reporter assay in Raw 264.7 cells treated with BMP6; assay type: cell-based; conditions: 100 ng/mL BMP6 two hours
Procedure: (§1) Specifically, 5×NF-κB-Luc reporter plasmid, SBE-Luc reporter plasmid, and BRE-Luc reporter plasmid were individually transfected into Raw 264.7 macrophage cells. After 24 hours, the cells transfected with the NF-κB-Luc reporter plasmid were treated with 100 ng/mL of LPS, the cells transfected with the SBE-Luc reporter plasmid were treated with 5 ng/mL of TFG-β1, and the cells transfected with the BRE-Luc reporter plasmid were treated with 100 ng/mL of BMP6 for two hours.

[4] = tested on: MAPK signaling pathway proteins (ERK1/2, JNK, p38); experiment: Western blot of MAPK signaling pathway protein phosphorylation in LPS-treated BMDM cells; assay type: cell-based; conditions: 100 pM, 1 nM, 100 nM, LPS 2 hours
Procedure: BMDM cells were pretreated with DMSO, reference compound 1 (SEQ ID NO: 16), compound 1.1 (SEQ ID NO: 2) and smaducin-6 at various concentrations of 100 pM, 1 nM and 100 nM and then further treated with LPS 2 hours. Thereafter, Western blot analysis was performed.

SBE (TFG-β1 signaling) = experiment: SBE-Luc reporter assay in Raw 264.7 cells treated with TFG-β1; assay type: cell-based; conditions: 5 ng/mL TFG-β1 two hours
Procedure: as §1

[5] = Tissue distribution after oral administration; assay type: in vivo; conditions: rat, oral 10 mg/kg
Procedure: Compound 1.1 (SEQ ID NO: 2) was orally administered to a rat at dose of 10 mg/kg, and after 2 hours and 8 hours, concentrations of compound 1.1 (SEQ ID NO: 2) were measured in the small intestinal tissue, large intestinal tissue, appendix tissue, retrimentum in small intestine and retrimentum in large intestine.

SMILES: CCCCCCCCCCCCCCCC(=O)N1CCC[C@H]1C(=O)N1CCC[C@H]1C(=O)NCC(=O)N[C@@H](Cc1ccc(O)cc1)C(=O)O [compound 1.1, (S)-3-(4-hydroxyphenyl)-2-(2-((S)-1-((S)-1-palmitoylpyrrolidine-2-carbonyl)pyrrolidine-2-carboxamido)acetamido)propanoic acid] (HELM PEPTIDE1{[CCCCCCCCCCCCCCCC(=O)[*:2]].P.P.G.Y}$$$$V2.0)
- expression of Ang1 and Tie-2 [1]: increased according to increased concentration
- expression of Nox4, VEGF, VEGFR1,2, Ang2, EPO and EPOR [1]: reduced
- tube formation (HRMEC cells): suppressed tube formation
- IC50 (interleukin-6; Mus musculus, RAW264.7, 50 pM to 500 nM for 30 minutes, 100 ng/mL LPS two hours, read-out: concentration where the expression of interleukin-6 was suppressed to 50% or below (IC50)): ~1.6 nM
- expression of interleukin-6 induced by LPS treatment (interleukin-6; pretreated 100 nM for 30 min, LPS two hours, compared to untreated sample): suppressed
- expression of VEGF precursor (VEGF): reduced
- disease activity (disease activity index score) ([2]; oral 50, 100, 200, 400 mg/kg daily for 11 days): decreased as the dose increased
- dose at which the decrease in disease activity was saturated ([2]; oral daily for 11 days): 200 mg/kg
- histological damages of large intestinal tissues ([3]; DSS-induced chronic colitis model): alleviated
- recovery of the mucous membranes (Alcian blue) ([3]; in comparison to non-treated group and sulfasalazine 500 mpk): greater recovery of the mucous membranes
- activation of BRE induced by BMP6 treatment (BRE (BMP6 signaling)): not inhibited
- phosphorylation of MAPK/ERK signaling pathway proteins (ERK1/2, JNK, p38) [4]: not related to suppressing phosphorylation
- activation of SBE induced by TFG-β1 treatment (SBE (TFG-β1 signaling)): not inhibited
- concentration at 2 h ([5]; appendix tissue, 2 hours, read-out: Concentration in appendix tissue): 22.7 ± 2.56 ng/mL
- concentration at 8 h ([5]; appendix tissue, read-out: Concentration in appendix tissue): 48.2 ± 46 ng/mL
- concentration at 2 h ([5]; large intestinal tissue, 2 hours, read-out: Concentration in large intestinal tissue): 30 ± 10 ng/mL
- concentration at 8 h ([5]; large intestinal tissue, read-out: Concentration in large intestinal tissue): 33.2 ± 28.8 ng/mL
- Concentration in small intestinal tissue ([5]; 2 hours): 75 ± 70.2 ng/mL
- concentration at 8 h ([5]; retrimentum in large intestine, read-out: Concentration in retrimentum in large intestine): 1280 ± 52.7 ng/mL
- concentration at 2 h ([5]; retrimentum in small intestine, 2 hours, read-out: Concentration in retrimentum in small intestine): 1120 ± 217 ng/mL
- concentration at 8 h ([5]; retrimentum in small intestine, read-out: Concentration in retrimentum in small intestine): 876 ± 900 ng/mL
- concentration at 8 h ([5]; small intestinal tissue, read-out: Concentration in small intestinal tissue): 78.1 ± 59.9 ng/mL
